Measured values as given in US6348445B1, “Biologically active peptides with reduced toxicity in animals and a method for preparing same” (priority 1992, dated 2002).
Like-named read-outs stand apart in the source and are kept apart here. *1 amine or outer side, *2 acyl side, *3 side chain or, on linkers, in order; H or OH if unused. Where a SMILES comes first, the peptide text is derived from it. Where no end group is shown, it is not given here. The star is where a group is joined. Suc = O=C(CCC(=O)[*:2])[*:1]; Octanoyl = CCCCCCCC(=O)*; Pentanoyl = CCCCC(=O)*

Experiments:
[1] = test system: C. albicans; format: cell-based
How it was run: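 Broth microdilution: mid-log organisms at 1-5×10^5 CFU/ml in Mueller Hinton broth exposed to 2-fold peptide series (0.25–256 μg/ml final). After 16-20 h at 37° C, MIC read as the lowest concentration leaving the well clear.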

[2] = test system: P. aeruginosa strain ATCC 27853; format: cell-based
How it was run: (§1)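 Broth microdilution per NCCLS M7-T2: final peptide levels 0.25 to 256 μg/ml (twofold steps), inoculum 1-5×10^5 CFUs/ml in full-strength Mueller Hinton broth. MIC read as lowest concentration leaving the well clear after 16-20 hours at 37° C.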

[3] = test system: E. coli ATCC strain 25922; test: Minimal Inhibitory Concentration, microtiter broth dilution; format: cell-based
How it was run: as §1

[4] = test system: S.aureus strain ATCC 25923; test: as above; format: cell-based; settings: Mueller Hinton broth, 16-20 hours at 37° C.
Source text: Table I, which follows, indicates the Minimal Inhibitory Concentration (MIC) in […] of various peptides against S.aureus strain ATCC 25923(S), P. aeruginosa strain ATCC 27853(P), E. coli ATCC strain 25922(E), and C. 4albicans (CA). […] The peptides are unsubstituted at the N-terminal; substituted with an acetyl group at the N-terminal, as indicated by Ac-; substituted with an octanoyl group at the N-terminal, as indicated by Oct-; substituted with spinogosine, as indicated by Sph-; substituted with a succinyl group, as indicated by Suc-; substituted with a hexanoyl group, as indicated by Hex-; substituted with a heptanoyl group, as indicated by Hep-; substituted with a valeryl group, as indicated by Val-; substituted with a myristryl group, as indicated by Myr-; or substituted with an ibuprofyl group, as indicated by Ibu-;
The procedure for the anti-bacterial assay is based upon the guidelines of the National Committee for Clinical Laboratory Standards, Document M7-T2, Volume 8, No. 8, 1988, which document is entirely incorporated herein by reference.
Stock solutions of peptides, with and without the appropriate substitutions, were prepared at a concentration of 512 μg/ml in sterile deionized distilled water and stored at −70° C.
The stock peptide solution was diluted in serial dilutions (1:2) down the wells of a microtiter plate so that the final concentrations of peptides in the wells were 0.25, 0.50, 1, 2, 4, 8, 16, 32, 64, 128 and 256 μg/ml. 1-5×10^5 CFUs/ml of either S. aureus ATCC 25923, E. coli ATCC 25922, P. aeruginosa ATCC 27853, or C. albicans, were added to the wells in full strength Mueller Hinton broth (BBL 11443) from a mid-log culture. The inoculum was standardized spectrophotometrically at 600 nm and was verified by colony counts. The plates were incubated for 16-20 hours at 37° C., and the minimal inhibitory concentration (MIC) for each peptide was determined. Minimal inhibitory concentration is defined as the lowest concentration of peptide which produces a clear well in the microtiter plate. The minimal inhibitory concentration of each of the peptides with and/or without the appropriate substitutions is given in Table I below.

[5] = test system: A. viscosus; test: anaerobic anti-microbial susceptibility test (MIC); format: cell-based; settings: 24-48 hours
[6] = test system: S. mutans; test: anaerobic anti-microbial susceptibility test (MIC); format: cell-based; design: unit not given here; settings: 24-48 hours
[7] = test system: P. gingivalis; settings: anaerobic, 24-48 hours

Compound	Minimal Inhibitory Concentration CA [1] [µg/mL]	Minimal Inhibitory Concentration P ([2]; ATCC 27853) [µg/mL]	Minimal Inhibitory Concentration E ([3]; E. coli ATCC strain 25922, Table I) [µg/mL]	Minimal Inhibitory Concentration S [4] [µg/mL]	Minimal Inhibitory Concentration E ([3]; ATCC strain 25922) [µg/mL]	MIC A. viscos [5] [μl/ml]	MIC S. mutans [6]	MIC P. gingivalis (strain) 9-14K-1 [7]	MIC P. gingivalis (strain) 381 [7] [μl/ml]	MIC P. gingivalis (strain) 450 [7] [μl/ml]	MIC P. gingivalis (strain) A7A1-28 [7] [μl/ml]	MIC P. gingivalis (strain) FAY-19M-1 [7]	Minimal Inhibitory Concentration P ([2]; P. aeruginosa strain ATCC 27853, Table I)
CCCCCCCC(=O)N[C@@H](CCCCN)C(=O)N[C@@H](Cc1c[nH]c2ccccc12)C(=O)N[C@@H](CCCCN)C(=O)N[C@@H](CC(C)C)C(=O)N[C@@H](Cc1ccccc1)C(=O)N[C@@H](CCCCN)C(=O)N[C@@H](CCCCN)C(=O)N[C@H](C(=O)N[C@@H](CCC(=O)O)C(=O)N[C@@H](CCCCN)C(=O)N[C@H](C(N)=O)C(C)C)[C@@H](C)CC [Oct-(SEQ ID NO: 136)-NH2] (Octanoyl-KWKLFKKIEKV-NH2)	256	64	256	256									
CC[C@H](C)[C@H](NC(=O)[C@H](CCCCN)NC(=O)CNC(=O)[C@H](C)NC(=O)[C@@H](NC(=O)[C@H](CCCCN)NC(=O)[C@H](C)NC(=O)[C@@H](NC(=O)[C@H](CCCCN)NC(=O)CNC(=O)[C@H](C)NC(=O)[C@@H](NC(=O)[C@H](CCCCN)NC(=O)[C@H](C)NC(=O)[C@@H](NC(=O)[C@H](CCCCN)NC(=O)CNC(=O)[C@H](C)NC(=O)[C@@H](NC(=O)[C@H](CCCCN)NC(=O)CCC(=O)O)[C@@H](C)CC)[C@@H](C)CC)[C@@H](C)CC)[C@@H](C)CC)[C@@H](C)CC)C(=O)N[C@@H](C)C(N)=O [Suc-((SEQ ID NO: 27)-NH2] (Suc-KIAGKIAKIAGKIAKIAGKIA-NH2)	128	>256			32								
CCCCC(=O)N[C@@H](CC(C)C)C(=O)N[C@@H](CCCCN)C(=O)N[C@@H](CCCCN)C(=O)N[C@@H](CC(C)C)C(=O)N[C@@H](CC(C)C)C(=O)N[C@@H](CCCCN)C(=O)N[C@@H](CCCCN)C(=O)N[C@@H](CC(C)C)C(=O)N[C@@H](CCCCN)C(=O)N[C@@H](CCCCN)C(=O)N[C@@H](CC(C)C)C(N)=O [Val-(SEQ ID NO: 110)-NH2] (Pentanoyl-LKKLLKKLKKL-NH2)	32	8			32								
(Lys Ile Ala Lys Lys Ile Ala)3 (KIAKKIAKIAKKIAKIAKKIA-NH2) [(SEQ ID NO. 86)-NH2]						16	4	8 μl/ml	8	4	2	8,128 μl/ml	
H-GIKKFLKKAGKFGKAF-NH2 [(SEQ ID NO: 149)-NH2]	64	32			32								
H-KIAGKIAKIAGKIAKIAGKIA-NH2 [(SEQ ID NO: 27)-NH2, (Lys Ile Ala Gly Lys Ile Ala)3]					8	16	16	8,128 μl/ml	128	4	16	64 μl/ml	64,128 μg/ml
